Here are results for 21 compounds from US9346812B2, “Substituted pyrrolopyrimidine compounds, compositions thereof, and methods of treatment therewith” (Signal Pharmaceutical LLC, priority 2013, dated 2016).

This assay relates to CAL51 cell proliferation. Briefly: Cell Titer Glo Proliferation Assay (CAL51). The settings on record: Homo sapiens, CAL-51; CAL51 cell proliferation, 72 h, Cell Titer Glo luminescence; read-out: Act. Level. The class given is cell-based, human. The gist of the method:
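Viability is measured by CellTiter-Glo luminescence after 72 h of compound exposure. CAL51 cells were seeded in growth medium with 10% FBS and 2 mM glutamine, cultured overnight, then dosed with compound dilutions, vehicle held at 0.2% DMSO.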
A general note: In ATP-based viability assays light output follows the ATP content of the culture.

For the compound `CNC(=O)c1ccc(-c2c[nH]c3nc(Nc4ccc(C(=O)NC)cc4OC)nc(OC)c23)cc1` [Example 124, 3-methoxy-4-(4-methoxy-5-(4-(methylcarbamoyl)phenyl)-7H-pyrrolo[2,3-d]pyrimidin-2-ylamino)-N-methylbenzamide], the IC50 was 0.1 to 0.4 µM.

Turning to `CNC(=O)c1ccc(Nc2nc(OC3CCCC3)c3c(-c4ccc(C(C)(C)O)cc4)c[nH]c3n2)c(OC)c1` [Example 49, 4-(4-(cyclopentyloxy)-5-(4-(2-hydroxypropan-2-yl)phenyl)-7H-pyrrolo[2,3-d]pyrimidin-2-ylamino)-3-methoxy-N-methylbenzamide], the IC50 lay within 0.1 to 0.4 µM.

As to `CNS(=O)(=O)c1ccc(Nc2nc(OC3CCOCC3)c3c(-c4ccc5nc(C)oc5c4)c[nH]c3n2)c(OC)c1` [Example 219, 3-methoxy-N-methyl-4-(5-(2-methylbenzo[d]oxazol-6-yl)-4-(tetrahydro-2H-pyran-4-yloxy)-7H-pyrrolo[2,3-d]pyrimidin-2-ylamino)benzenesulfonamide], the IC50 lay in the range of 0.1 to 0.4 µM.

Consider `CNC(=O)c1ccc(Nc2nc(OC3CCCC3)c3c(-c4ccc(OC)c(F)c4)c[nH]c3n2)c(OC)c1` [Example 54, 4-(4-(cyclopentyloxy)-5-(3-fluoro-4-methoxyphenyl)-7H-pyrrolo[2,3-d]pyrimidin-2-ylamino)-3-methoxy-N-methylbenzamide], for which the IC50 is 0.1 to 0.4 µM.

Turning to `CNC(=O)c1ccc(Nc2nc(OC3CCOCC3)c3c(-c4ccn(C)n4)c[nH]c3n2)c(OC)c1` [Example 163, 3-methoxy-N-methyl-4-(5-(1-methyl-1H-pyrazol-3-yl)-4-(tetrahydro-2H-pyran-4-yloxy)-7H-pyrrolo[2,3-d]pyrimidin-2-ylamino)benzamide], the IC50 is below 0.1 µM.

In the case of `CNC(=O)c1ccc(Nc2nc(OC3CCOCC3)c3c(-c4ccc5nc(C(C)C)oc5c4)c[nH]c3n2)c(OC)c1` [Example 170, 4-(5-(2-isopropylbenzo[d]oxazol-6-yl)-4-(tetrahydro-2H-pyran-4-yloxy)-7H-pyrrolo[2,3-d]pyrimidin-2-ylamino)-3-methoxy-N-methylbenzamide], the IC50 was in the range of 0.1 to 0.4 µM.

As for `CNC(=O)c1ccc(Nc2nc(O[C@H]3CC[C@](C)(O)CC3)c3c(-c4ccc5nc(C)oc5c4)c[nH]c3n2)c(C)c1` [Example 150, 4-(4-((1r,4r)-4-hydroxy-4-methylcyclohexyloxy)-5-(2-methylbenzo[d]oxazol-6-yl)-7H-pyrrolo[2,3-d]pyrimidin-2-ylamino)-N,3-dimethylbenzamide], the IC50 was below 0.1 µM.

For `CNC(=O)c1ccc(Nc2nc(OC(C)C)c3c(-c4cnn(C)c4)c[nH]c3n2)c(OC)c1` [Example 189, 4-(4-isopropoxy-5-(1-methyl-1H-pyrazol-4-yl)-7H-pyrrolo[2,3-d]pyrimidin-2-ylamino)-3-methoxy-N-methylbenzamide], the IC50 is below 0.1 µM.

Consider `COc1nc(Nc2ccc(C(=O)N(C)C)cc2Cl)nc2[nH]cc(-c3ccncc3)c12` [Example 157, 3-chloro-4-(4-methoxy-5-(pyridin-4-yl)-7H-pyrrolo[2,3-d]pyrimidin-2-ylamino)-N,N-dimethylbenzamide], for which the IC50 lay within 0.1 to 0.4 µM.

As to `CNC(=O)c1ccc(Nc2nc(OC(C)C)c3c(-c4ccnc(N)c4)c[nH]c3n2)c(OC)c1` [Example 194, 4-(5-(2-aminopyridin-4-yl)-4-isopropoxy-7H-pyrrolo[2,3-d]pyrimidin-2-ylamino)-3-methoxy-N-methylbenzamide], the IC50 is below 0.1 µM.

In the case of `COc1cc(C(=O)NCC(C)(F)F)ccc1Nc1nc(OC2CCCC2)c2c(-c3ccc4nc(C)oc4c3)c[nH]c2n1` [Example 309, 4-(4-(cyclopentyloxy)-5-(2-methylbenzo[d]oxazol-6-yl)-7H-pyrrolo[2,3-d]pyrimidin-2-ylamino)-N-(2,2-difluoropropyl)-3-methoxybenzamide], the IC50 was 0.1 to 0.4 µM.

`CNC(=O)c1ccc(Nc2nc(OC3CCOCC3)c3c(-c4cc5oc(C)nc5cc4C)c[nH]c3n2)c(OC)c1` [Example 136, 4-(5-(2,5-dimethylbenzo[d]oxazol-6-yl)-4-(tetrahydro-2H-pyran-4-yloxy)-7H-pyrrolo[2,3-d]pyrimidin-2-ylamino)-3-methoxy-N-methylbenzamide]: the IC50 lay in the range of 1 to 10 µM.

With `COc1nc(Nc2ccc(-c3cn[nH]c3)cc2)nc2[nH]cc(-c3ccc4nc(C)oc4c3)c12` [Example 88, N-(4-(1H-pyrazol-4-yl)phenyl)-4-methoxy-5-(2-methylbenzo[d]oxazol-6-yl)-7H-pyrrolo[2,3-d] pyrimidin-2-amine], the IC50 was 0.1 to 0.4 µM.

With `CNC(=O)c1ccc(Nc2nc(OC3CCCC3)c3c(-c4ccc5nc(N)[nH]c5c4)c[nH]c3n2)c(OC)c1` [Example 110, 4-(5-(2-amino-1H-benzo[d]imidazol-6-yl)-4-(cyclopentyloxy)-7H-pyrrolo[2,3-d]pyrimidin-2-ylamino)-3-methoxy-N-methylbenzamide], the IC50 is below 0.1 µM.

Turning to `CNC(=O)c1ccc(Nc2nc(OC3CCCC3)c3c(-c4ccc5[nH]ccc5c4)c[nH]c3n2)c(OC)c1` [Example 81, 4-(4-(cyclopentyloxy)-5-(1H-indol-5-yl)-7H-pyrrolo[2,3-d]pyrimidin-2-ylamino)-3-methoxy-N-methylbenzamide], the IC50 lay in the range of 0.4 to 1 µM.

As for `CNC(=O)c1ccc(Nc2nc(OC3CCCC3)c3c(-c4cncc(O)c4)c[nH]c3n2)c(OC)c1` [Example 51, 4-(4-(cyclopentyloxy)-5-(5-hydroxypyridin-3-yl)-7H-pyrrolo [2,3-d]pyrimidin-2-ylamino)-3-methoxy-N-methylbenzamide], the IC50 is below 0.1 µM.

With `CNC(=O)c1ccc(Nc2nc(OC(C)C)c3c(-c4ccnc(OC)c4)c[nH]c3n2)c(OC)c1` [Example 185, 4-(4-isopropoxy-5-(2-methoxypyridin-4-yl)-7H-pyrrolo [2,3-d]pyrimidin-2-ylamino)-3-methoxy-N-methylbenzamide], the IC50 is below 0.1 µM.

With `COc1cc(C(=O)N(C)CCO)ccc1Nc1nc(OC2CCCC2)c2c(-c3ccc4nc(C)oc4c3)c[nH]c2n1` [Example 233, 4-(4-(cyclopentyloxy)-5-(2-methylbenzo[d]oxazol-6-yl)-7H-pyrrolo[2,3-d]pyrimidin-2-ylamino)-N-(2-hydroxyethyl)-3-methoxy-N-methylbenzamide], the IC50 is below 0.1 µM.

Turning to `COc1cc(C(=O)N(CCO)C2CC2)ccc1Nc1nc(OC2CCCC2)c2c(-c3ccc4nc(C)oc4c3)c[nH]c2n1` [Example 251, 4-(4-(cyclopentyloxy)-5-(2-methylbenzo[d]oxazol-6-yl)-7H-pyrrolo[2,3-d]pyrimidin-2-ylamino)-N-cyclopropyl-N-(2-hydroxyethyl)-3-methoxybenzamide], the IC50 fell in the range of 0.1 to 0.4 µM.

Take `COc1cc(C(=O)N(C)CCC(N)=O)ccc1Nc1nc(OC2CCCC2)c2c(-c3ccc4nc(C)oc4c3)c[nH]c2n1` [Example 257, N-(3-amino-3-oxopropyl)-4-(4-(cyclopentyloxy)-5-(2-methylbenzo[d]oxazol-6-yl)-7H-pyrrolo[2,3-d]pyrimidin-2-ylamino)-3-methoxy-N-methylbenzamide]: the IC50 is below 0.1 µM.

Turning to `CNC(=O)c1ccc(Nc2nc(OC3COC3)c3c(-c4ccc5nc(C)oc5c4)c[nH]c3n2)c(OC)c1` [Example 179, 3-methoxy-N-methyl-4-(5-(2-methylbenzo[d]oxazol-6-yl)-4-(oxetan-3-yloxy)-7H-pyrrolo[2,3-d]pyrimidin-2-ylamino)benzamide], the IC50 was below 0.1 µM.
